Test results as given in US20230167073A1 (Teijin Pharma Limited, priority 2020, published 2023).

What follows are compounds tested against T1, Human TRPC6 (Homo sapiens, UniProt Q9Y210) (assay: Evaluation of TRPC6 channel inhibitory activity (2), HEK293 cells with stably introduced human TRPC6, OAG stimulation, FLIPR tetra (Compound Nos. 1293 to 1405)). Conditions: HEK293 cells with stably introduced human TRPC6, OAG 50 μM/0.5% DMSO, read-out: Inhibitory activity (pIC50 class) (converted).
T1 construct: expressed in transfected cells
T1 sequence (Q9Y210 1-931): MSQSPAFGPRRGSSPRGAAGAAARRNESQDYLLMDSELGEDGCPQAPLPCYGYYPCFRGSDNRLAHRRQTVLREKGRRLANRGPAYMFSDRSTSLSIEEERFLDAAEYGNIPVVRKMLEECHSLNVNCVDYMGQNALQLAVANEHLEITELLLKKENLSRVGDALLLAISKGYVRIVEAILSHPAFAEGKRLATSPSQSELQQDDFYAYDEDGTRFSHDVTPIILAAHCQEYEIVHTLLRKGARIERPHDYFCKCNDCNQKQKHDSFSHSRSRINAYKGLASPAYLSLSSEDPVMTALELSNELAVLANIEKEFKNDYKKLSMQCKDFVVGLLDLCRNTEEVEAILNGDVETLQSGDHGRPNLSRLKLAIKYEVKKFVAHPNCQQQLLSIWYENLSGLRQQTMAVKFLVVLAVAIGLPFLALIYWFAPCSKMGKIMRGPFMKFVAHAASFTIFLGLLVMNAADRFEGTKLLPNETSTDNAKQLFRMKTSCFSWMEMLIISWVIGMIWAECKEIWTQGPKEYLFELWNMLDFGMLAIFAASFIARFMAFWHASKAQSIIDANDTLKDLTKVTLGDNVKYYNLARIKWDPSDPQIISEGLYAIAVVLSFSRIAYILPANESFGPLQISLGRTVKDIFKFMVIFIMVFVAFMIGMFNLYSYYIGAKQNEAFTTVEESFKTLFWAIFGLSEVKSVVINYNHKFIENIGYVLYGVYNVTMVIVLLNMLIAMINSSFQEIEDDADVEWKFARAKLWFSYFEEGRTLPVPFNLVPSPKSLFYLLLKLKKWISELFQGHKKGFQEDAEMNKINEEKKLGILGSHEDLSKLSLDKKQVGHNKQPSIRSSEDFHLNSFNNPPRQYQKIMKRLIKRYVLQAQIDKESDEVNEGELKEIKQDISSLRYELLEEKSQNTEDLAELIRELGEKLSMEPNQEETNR
Assay type: cell-based
Experimental: Evaluation of TRPC6 Channel Inhibitory Activity (2) (Compound Nos. 1293 to 1405)
The activity of the TRPC6 inhibitor was measured by stimulating HEK293 cells, in which human TRPC6 was stably introduced, with OAG (1-Oleoyl-2-acetyl-sn-glycerol, Miliipore Sigma, 06754), using the FLIPR tetra system. The cells were proliferated in a humid environment at 37° C. 5% CO2 using a growth medium (DMEM (Dulbecco's Modified Eagle's Medium) high glucose containing 10% fetal bovine serum, 1×PSGlu (penicillin-streptomycin glutamine), 1×NEAA (Non-essential amino acid), sodium pyruvate and 200 μg/mL hyglomycin. For cell subculture, the cells were proliferated to 70-90% confluence, and gently washed twice with PBS (phosphate-buffered saline) free of calcium and magnesium after removing the medium. Then, the cells were incubated at 37° C. for 5 minutes after adding trypsin (3 mL), peeled off by tapping the flask at the base of the hand, 7 mL of growth medium was added to inactivate trypsin, and then the cells were resuspended. Usually, the cells were separated every 2-3 days to become a cell density of ⅕. The day before evaluation, the cells were seeded in a poly-D-lysine (PDL) coated 384-well plate using a multi-channel pipette or multidrop at a cell density of 1.0-1.5×10^4 cells/25 μL/well. After culturing overnight in a PDL-coated 384 Blackwell plate, a fluorescent dye buffer was added first to the cells and the cells were cultured at room temperature for 90-120 minutes. For preparing 10 mL of fluorescent dye buffer, 9 mL of assay buffer, 1 mL of 10×PBX signal enhancer, and 10 μL of calcium indicator were mixed. Cells treated with the compounds of each level 25 minutes before the stimulation with OAG of TRPC6 agonist were incubated. OAG solution was prepared by adding OAG to assay buffer (Ca ringer solution base: 10 mM HEPES (4-(2-hydroxyethyl)-1-piperazine-ethanesulfonic acid), 4 mM MgCl2, 120 mM NaCl, 5 mM KCl, pH=7.2 (25° C.)+0.1% BSA+2 mM CaCl2)) to give an OAG concentration of 0.2 mM/2% DMSO. The final concentration of OAG added to the cells is 50 μM/0.5% DMSO. A volume of 12.5 μL of OAG solution was added, and activation of TRPC6 channel was measured using the FLIPR tetra system assaying the change in intracellular calcium level as an index. The 180 seconds imaging frame was defined as the background signal, and the subtraction of the background signal from the raw data was used as the fluorescence peak signal. Each fluorescence peak signal is standardized using an OAG-induced signal and buffer-induced signal as 100% and 0%, respectively. The inhibition rate obtained by plotting the peak signal after the addition of the compounds of each level was analyzed by a four-parameter logistic regression to quantify the inhibition rate in the logarithm of the inverse of the effective concentration which gives a 50% inhibition rate (pIC50). The intensity was expressed by the above-mentioned symbols (+, ++, +++).

**Q.** For Cn1nc(C2CC2)cc1Oc1cc(F)ccc1-c1ncc(C(F)CN)cn1 (stereo in doubt) [compound 1381, (2S)-2-[2-[2-(5-cyclopropyl-2-methylpyrazol-3-yl)oxy-4-fluorophenyl]pyrimidin-5-yl]-2-fluoroethanamine], which IC50 is on record?
**A.** > 1000 nM

**Q.** Cn1nc(C2CC2)cc1Oc1cc(C#N)ccc1-c1ccc(C(F)(F)CN)nc1 [compound 1294, 4-[6-(2-amino-1,1-difluoroethyl)pyridin-3-yl]-3-(5-cyclopropyl-2-methylpyrazol-3-yl)oxybenzonitrile] was tested. Which IC50 did it give?
**A.** > 1000 nM

**Q.** Which IC50 does the source give for Cn1nc(-c2ccccn2)cc1Oc1cc(C#N)ccc1-c1ncc([C@@H](F)CN)cn1 [compound 1295, 4-[5-[(1R)-2-amino-1-fluoroethyl]pyrimidin-2-yl]-3-(2-methyl-5-pyridin-2-ylpyrazol-3-yl)oxybenzonitrile] here?
**A.** < 10 nM

**Q.** Cn1nc(-c2ccccn2)cc1Oc1cc(C#N)ccc1-c1ncc([C@H](F)CN)cn1 [compound 1296, 4-[5-[(1S)-2-amino-1-fluoroethyl]pyrimidin-2-yl]-3-(2-methyl-5-pyridin-2-ylpyrazol-3-yl)oxybenzonitrile] was tested. Which IC50 did it give?
**A.** < 10 nM

**Q.** How did the IC50 turn out when Cc1cc(Oc2cc(C#N)ccc2-c2ccc3c(n2)CNC3)cc(N2CCOCC2)n1 [compound 1297, 4-(6,7-dihydro-5H-pyrrolo[3,4-b]pyridin-2-yl)-3-(2-methyl-6-morpholin-4-ylpyridin-4-yl)oxybenzonitrile] was run?
**A.** 10 to 1000 nM

**Q.** How did the IC50 turn out when Cc1cc(Oc2cc(C#N)ccc2-c2ncc(CN)cn2)nc(N2CCOCC2)n1 [compound 1298, 4-[5-(aminomethyl)pyrimidin-2-yl]-3-(6-methyl-2-morpholin-4-ylpyrimidin-4-yl)oxybenzonitrile] was run?
**A.** 10 to 1000 nM

**Q.** How did the IC50 turn out when Cc1cc(Oc2cc(C#N)ccc2-c2ccc([C@@H](F)CN)cn2)cc(N2CCOCC2)n1 [compound 1299, 4-[5-[(1R)-2-amino-1-fluoroethyl]pyridin-2-yl]-3-(2-methyl-6-morpholin-4-ylpyridin-4-yl)oxybenzonitrile] was run?
**A.** < 10 nM

**Q.** For Cc1cc(Oc2cc(C#N)ccc2-c2ccc([C@H](F)CN)cn2)cc(N2CCOCC2)n1 [compound 1300, 4-[5-[(1S)-2-amino-1-fluoroethyl]pyridin-2-yl]-3-(2-methyl-6-morpholin-4-ylpyridin-4-yl)oxybenzonitrile], which IC50 is on record?
**A.** < 10 nM

**Q.** How did the IC50 turn out when Cn1nc(-c2ccccn2)cc1Oc1cc(C#N)ccc1-c1ccc([C@@H](F)CN)cn1 [compound 1301, 4-[5-[(1R)-2-amino-1-fluoroethyl]pyridin-2-yl]-3-(2-methyl-5-pyridin-2-ylpyrazol-3-yl)oxybenzonitrile] was run?
**A.** < 10 nM

**Q.** Which IC50 does the source give for Cn1nc(-c2ccccn2)cc1Oc1cc(C#N)ccc1-c1ccc([C@H](F)CN)cn1 [compound 1302, 4-[5-[(1S)-2-amino-1-fluoroethyl]pyridin-2-yl]-3-(2-methyl-5-pyridin-2-ylpyrazol-3-yl)oxybenzonitrile] here?
**A.** < 10 nM

**Q.** How did the IC50 turn out when Cc1cc(Oc2cc(C#N)ccc2-c2cccc3cnc(N)nc23)cc(N2CCOCC2)n1 [compound 1303, 4-(2-aminoquinazolin-8-yl)-3-(2-methyl-6-morpholin-4-ylpyridin-4-yl)oxybenzonitrile] was run?
**A.** > 1000 nM

**Q.** Which IC50 does the source give for Cc1cc(Oc2cc(C#N)ccc2-c2ccc(CN)c(C)n2)cc(N2CCOCC2)n1 [compound 1304, 4-[5-(aminomethyl)-6-methylpyridin-2-yl]-3-(2-methyl-6-morpholin-4-ylpyridin-4-yl)oxybenzonitrile] here?
**A.** < 10 nM

**Q.** How did the IC50 turn out when COc1nc(-c2ccc(C#N)cc2Oc2cc(C)nc(N3CCOCC3)c2)ccc1CN [compound 1305, 4-[5-(aminomethyl)-6-methoxypyridin-2-yl]-3-(2-methyl-6-morpholin-4-ylpyridin-4-yl)oxybenzonitrile] was run?
**A.** 10 to 1000 nM

**Q.** For Cn1nc([C@@H]2CCOC2)cc1Oc1cc(C#N)ccc1-c1ccc(CN)cn1 [compound 1306, 4-[5-(aminomethyl)pyridin-2-yl]-3-[2-methyl-5-[(3S)-oxolan-3-yl]pyrazol-3-yl]oxybenzonitrile], which IC50 is on record?
**A.** < 10 nM

**Q.** For CNc1ccc(-c2ccc(C#N)cc2Oc2cc(C)nc(N3CCOCC3)c2)nc1 [compound 1307, 4-[5-(methylamino)pyridin-2-yl]-3-(2-methyl-6-morpholin-4-ylpyridin-4-yl)oxybenzonitrile], which IC50 is on record?
**A.** > 1000 nM

**Q.** Cn1nc([C@@H]2CCOC2)cc1Oc1cc(C#N)ccc1-c1ncc(CN)cn1 [compound 1308, 4-[5-(aminomethyl)pyrimidin-2-yl]-3-[2-methyl-5-[(3S)-oxolan-3-yl]pyrazol-3-yl]oxybenzonitrile] was tested. Which IC50 did it give?
**A.** 10 to 1000 nM

**Q.** How did the IC50 turn out when Cn1cc(-c2cc(Oc3cc(C#N)ccc3-c3ccc(CN)cn3)n(C)n2)cn1 [compound 1309, 4-[5-(aminomethyl)pyridin-2-yl]-3-[2-methyl-5-(1-methylpyrazol-4-yl)pyrazol-3-yl]oxybenzonitrile] was run?
**A.** 10 to 1000 nM

**Q.** With COc1nc(-c2ccc(C#N)cc2Oc2cc(-c3ccccn3)nn2C)ccc1CN [compound 1310, 4-[5-(aminomethyl)-6-methoxypyridin-2-yl]-3-(2-methyl-5-pyridin-2-ylpyrazol-3-yl)oxybenzonitrile] as the compound, how does the IC50 read?
**A.** 10 to 1000 nM

**Q.** How did the IC50 turn out when Cc1cc(Oc2cc(Cl)ccc2-c2ncc(CCN)cn2)cc(N2CCOCC2)n1 [compound 1311, 2-[2-[4-chloro-2-(2-methyl-6-morpholin-4-ylpyridin-4-yl)oxyphenyl]pyrimidin-5-yl]ethanamine] was run?
**A.** 10 to 1000 nM

**Q.** Which IC50 does the source give for Cn1nc(-c2ccccn2)cc1Oc1cc(C#N)ccc1-c1ccc(C(F)(F)CN)cn1 [compound 1312, 4-[5-(2-amino-1,1-difluoroethyl)pyridin-2-yl]-3-(2-methyl-5-pyridin-2-ylpyrazol-3-yl)oxybenzonitrile] here?
**A.** < 10 nM

**Q.** Cn1nc(C2CCOCC2)cc1Oc1cc(C#N)ccc1-c1ncc([C@@H](F)CN)cn1 [compound 1313, 4-[5-[(1R)-2-amino-1-fluoroethyl]pyrimidin-2-yl]-3-[2-methyl-5-(oxan-4-yl)pyrazol-3-yl]oxybenzonitrile] was tested. Which IC50 did it give?
**A.** 10 to 1000 nM

**Q.** Which IC50 does the source give for Cn1nc(C2CCOCC2)cc1Oc1cc(C#N)ccc1-c1ncc([C@H](F)CN)cn1 [compound 1314, 4-[5-[(1S)-2-amino-1-fluoroethyl]pyrimidin-2-yl]-3-[2-methyl-5-(oxan-4-yl)pyrazol-3-yl]oxybenzonitrile] here?
**A.** 10 to 1000 nM

**Q.** With Cc1cc(Oc2cc(Cl)ccc2-c2ncc(CN)cn2)cc(N2CCOCC2)n1 [compound 1315, [2-[4-chloro-2-(2-methyl-6-morpholin-4-ylpyridin-4-yl)oxyphenyl]pyrimidin-5-yl]methanamine] as the compound, how does the IC50 read?
**A.** 10 to 1000 nM

**Q.** Which IC50 does the source give for Cn1nc(-c2ccccn2)cc1Oc1cc(C#N)ccc1-c1cc(Cl)c(CN)cn1 [compound 1316, 4-[5-(aminomethyl)-4-chloropyridin-2-yl]-3-(2-methyl-5-pyridin-2-ylpyrazol-3-yl)oxybenzonitrile] here?
**A.** < 10 nM

**Q.** Which IC50 does the source give for Cn1nc([C@H]2CCCO2)cc1Oc1cc(C#N)ccc1-c1ccc(CCN)cn1 [compound 1317] here?
**A.** < 10 nM
